Experimental findings from ChEMBL document CHEMBL1143470, “Synthesis and anticonvulsant activity of 7-alkoxyl-4,5-dihydro-[1,2,4]triazolo[4,3-a]quinolines” (Bioorg Med Chem Lett, 2005) are described below.

The species named for the first series is Mus musculus. Put plainly: Concentration producing anticonvulsant drug-induced neurologic deficit after 4 hrs done by rotarod ataxia test in mouse; na=no activity. It counts as functional, organism-based.
Details: not given
Consider `Fc1ccccc1COc1ccc2c(c1)CCc1nncn1-2`, for which the DOSE result was “No activity”.
On the same count and under the same terms, for `CCOc1ccc2c(c1)CCc1nncn1-2` the value was “No activity”; for `Fc1cccc(F)c1COc1ccc2c(c1)CCc1nncn1-2`, “No activity”.
Regarding `CCCCCCCCOc1ccc2c(c1)CCc1nncn1-2`, the DOSE result is “No activity”.
On the same count and under the same terms, for `Fc1ccc(COc2ccc3c(c2)CCc2nncn2-3)cc1` the value was “No activity”; for `Clc1ccc(COc2ccc3c(c2)CCc2nncn2-3)cc1Cl`, “No activity”.

Another series relates to Rattus norvegicus. Put plainly: Neurotoxicity expressed as median toxic dose (TD50) produced after Rotarod ataxia test in mouse by i.p. administration (range 62.8-72.9). It is filed as functional. To be noted: ip.
With `CCC1(c2ccccc2)C(=O)NC(=O)NC1=O` [PHENOBARBITAL], the ED50 (in general, the dose at which the effect has come halfway, by size or by number of responders) came to 69 mg/kg.

The test system of the next series is Mus musculus. Put plainly: Anticonvulsant activity of compound expressed in terms of median effective dose (ED50) produced after MES test in mouse by i.p. administration (range 12.9-10.9). To be noted: ip.
`Fc1ccc(COc2ccc3c(c2)CCc2nncn2-3)cc1` displayed an ED50 of 11.8 mg/kg.

The species named for another series is Mus musculus. Put plainly: Concentration of compound producing anticonvulsant drug-induced neurologic deficit after 0.5 hrs done by rotarod ataxia test in mouse; na=no activity. It is filed as functional, organism-based.
Details: not given
(In the rotarod test animals must keep their balance on a rotating rod.)
As to `Fc1ccccc1COc1ccc2c(c1)CCc1nncn1-2`, the DOSE entry was “No activity”.
Still for that read-out and setting: for `CCOc1ccc2c(c1)CCc1nncn1-2` the value was “No activity”; for `Fc1cccc(F)c1COc1ccc2c(c1)CCc1nncn1-2`, “No activity”.
As for `CCCCCCCCOc1ccc2c(c1)CCc1nncn1-2`, the DOSE result was “No activity”.
With `Clc1ccc(COc2ccc3c(c2)CCc2nncn2-3)cc1Cl`, the DOSE entry was “No activity”.

The next series concerns Mus musculus. The series can be described thus: Concentration producing seizure after 4 hrs tested by MES (Maximal ElectroShock test) done after 30 min of administration in mouse.
Details: not given
(The maximal electroshock test induces tonic seizures with an electrical stimulus.)
Turning to `Fc1ccc(COc2ccc3c(c2)CCc2nncn2-3)cc1`, the Dose worked out at 30 mg/kg.

For a further series, the species on record is Mus musculus. Put plainly: Protective index (TD50/ED50) produced by compound in mouse after MES test.
Details: not given
`Fc1ccc(COc2ccc3c(c2)CCc2nncn2-3)cc1`: the PI came out at 4.6.

The species named for another series is Mus musculus. Put plainly: Protective index (TD50/ED50) produced by compound in mouse after ScMet test.
Details: not given
`O=C1NC(=O)C(c2ccccc2)(c2ccccc2)N1` [PHENYTOIN]: the PI is listed as <0.22.
On to `NC(=O)N1c2ccccc2C=Cc2ccccc21` [CARBAMAZEPINE], for which the PI was <0.22.
Still for that read-out and setting: for `Fc1ccc(COc2ccc3c(c2)CCc2nncn2-3)cc1` the value was 8.1.

A further series has as its system Mus musculus. The series can be described thus: Concentration producing seizure after 0.5 hrs tested by MES (Maximal ElectroShock test) done after 30 min of administration in mouse; na=no activity.
Details: not given
It is filed as functional, organism-based.
As for `CCOc1ccc2c(c1)CCc1nncn1-2`, the DOSE result is “No activity”.
On to `Fc1cccc(F)c1COc1ccc2c(c1)CCc1nncn1-2`, for which the DOSE result is “No activity”.
Take `Clc1ccc(COc2ccc3c(c2)CCc2nncn2-3)cc1Cl`: the DOSE result was “No activity”.

The subject of another series is Mus musculus. The series can be described thus: Anticonvulsant activity of compound expressed in terms of median effective dose (ED50) produced after MES test in mouse by i.p. administration (range 247-338). To be noted: ip.
For `CCCC(CCC)C(=O)O` [VALPROIC ACID], the ED50 came out at 272 mg/kg.

For a further series, the species on record is Mus musculus. Put plainly: Concentration of compound producing anticonvulsant drug-inducedneurologic deficit after 0.5 hrs done by rotarod ataxia test in mouse. The note with it: in vivo.
Take `Fc1ccc(COc2ccc3c(c2)CCc2nncn2-3)cc1`: the Dose amounted to 100 mg/kg.

For another series, the system named is Mus musculus. The series can be described thus: Concentration producing seizure after 0.5 hrs tested by MES (Maximal ElectroShock test) done after 30 min of administration in mouse.
Details: not given
`Fc1ccccc1COc1ccc2c(c1)CCc1nncn1-2` gave a Dose of 300 mg/kg.
`CCCCCCCCOc1ccc2c(c1)CCc1nncn1-2` returned a Dose of 100 mg/kg.
In turn, `Fc1ccc(COc2ccc3c(c2)CCc2nncn2-3)cc1` yielded a Dose of 30 mg/kg.

The subject of a further series is Mus musculus. Put plainly: Anticonvulsant activity of compound expressed in terms of median effective dose (ED50) produced after ScMet test in mouse by i.p. administration. To be noted: ip.
Consider `O=C1NC(=O)C(c2ccccc2)(c2ccccc2)N1` [PHENYTOIN], for which the ED50 is > 300 mg/kg.
Still for that read-out and setting: for `NC(=O)N1c2ccccc2C=Cc2ccccc21` [CARBAMAZEPINE] the value was > 100 mg/kg.

Another series deals with Mus musculus. The series can be described thus: Concentration producing seizure after 0.5 hrs tested by ScMet (Subcutaneous pentylenetetrazole test) done after 30 min of administration of 85 mg/kg pentylenetetrazol in mouse.
Details: not given
Compound `Fc1ccccc1COc1ccc2c(c1)CCc1nncn1-2` returned a Dose of 300 mg/kg.
As for `Fc1ccc(COc2ccc3c(c2)CCc2nncn2-3)cc1`, the Dose was 30 mg/kg.

The subject of the next series is Mus musculus. Put plainly: Anticonvulsant activity of compound expressed in terms of median effective dose (ED50) produced after ScMet test in mouse by i.p. administration (range 5.7-7.9). To be noted: ip.
`Fc1ccc(COc2ccc3c(c2)CCc2nncn2-3)cc1` gave a 50% effective dose (ED50) of 6.7 mg/kg.

A further series deals with Mus musculus. The series can be described thus: Anticonvulsant activity of compound expressed in terms of median effective dose (ED50) produced after ScMet test in mouse by i.p. administration (range 123-177). To be noted: ip.
The compound `CCCC(CCC)C(=O)O` [VALPROIC ACID] gave an ED50 of 149 mg/kg.

In the next series the test system is Mus musculus. Put plainly: Anticonvulsant activity of compound expressed in terms of median effective dose (ED50) produced after MES test in mouse by i.p. administration (range 5.5-14.1). To be noted: ip.
In turn, `NC(=O)N1c2ccccc2C=Cc2ccccc21` [CARBAMAZEPINE] gave a median effective dose (ED50) of 8.8 mg/kg.

Another series concerns Mus musculus. The series can be described thus: Concentration producing seizure after 4 hrs tested by ScMet (Subcutaneous pentylenetetrazole test) done after 30 min of administration of 85 mg/kg pentylenetetrazol in mouse; na=no activity. It is filed as functional, organism-based. Further details: dose 85 mg/kg.
Details: not given
With `Fc1ccccc1COc1ccc2c(c1)CCc1nncn1-2`, the DOSE result is “No activity”.
Still for that read-out and setting: for `Fc1cccc(F)c1COc1ccc2c(c1)CCc1nncn1-2` the value was “No activity”.
Same read-out and setting: for `CCCCCCCCOc1ccc2c(c1)CCc1nncn1-2` the value was “No activity”; for `Fc1ccc(COc2ccc3c(c2)CCc2nncn2-3)cc1`, “No activity”; for `Clc1ccc(COc2ccc3c(c2)CCc2nncn2-3)cc1Cl`, “No activity”.

For a further series, the system named is Mus musculus. Put plainly: Concentration producing seizure after 4 hrs tested by MES (Maximal ElectroShock test) done after 30 min of administration in mouse; na=no activity. It is filed as functional, organism-based.
Details: not given
For `Fc1ccccc1COc1ccc2c(c1)CCc1nncn1-2`, the DOSE entry was “No activity”.
Same read-out and setting: for `Fc1cccc(F)c1COc1ccc2c(c1)CCc1nncn1-2` the value was “No activity”; for `CCCCCCCCOc1ccc2c(c1)CCc1nncn1-2`, “No activity”.
For the compound `Clc1ccc(COc2ccc3c(c2)CCc2nncn2-3)cc1Cl`, the DOSE entry was “No activity”.

In the next series the test system is Mus musculus. Put plainly: Concentration producing seizure after 0.5 hrs tested by ScMet (Subcutaneous pentylenetetrazole test) done after 30 min of administration of 85 mg/kg pentylenetetrazol in mouse; na=no activity.
Details: not given
The arrangement: dose 85 mg/kg. It counts as functional, organism-based.
For `CCOc1ccc2c(c1)CCc1nncn1-2`, the DOSE entry is “No activity”.
Same read-out and setting: for `Fc1cccc(F)c1COc1ccc2c(c1)CCc1nncn1-2` the value was “No activity”; for `Clc1ccc(COc2ccc3c(c2)CCc2nncn2-3)cc1Cl`, “No activity”.

For another series, the system named is Mus musculus. Put plainly: Concentration producing seizure after 0.5 hrs tested by ScMet (Subcutaneous pentylenetetrazole test) done after 30 min of administration of 85 mg/kg pentylenetetrazol in mouse (no activity).
Details: not given
Take `CCCCCCCCOc1ccc2c(c1)CCc1nncn1-2`: the Dose worked out at 100 mg/kg.
